Laboratory results published in PMC4225842 (2014).
One block for each compound: values may come before it.

Columns and labels:
[1] = tested on: R13.2 (DNA, aptamer) TGTACCGTCTGAGCGATTCGTACTGTGGGCACCAATCGTACCCAATACTTGCGAATCAGCCAGTCAGTGTTAAGGAGTGC; assay: competitive elution of labelled DNA from bromacil beads, fluorescence; settings: 100 mM NaCl, 2 mM MgCl2, 20 mM Tris-HCl, 0.01% methanol, 1 μM free compound
[2] = tested on: R13.2 (DNA, aptamer) TGTACCGTCTGAGCGATTCGTACTGTGGGCACCAATCGTACCCAATACTTGCGAATCAGCCAGTCAGTGTTAAGGAGTGC; assay: fluorescence saturation binding on magnetic beads; settings: 100 mM NaCl, 2 mM MgCl2; immobilised compound (biotinylated bromacil on streptavidin beads); 20 mM Tris-HCl; 5 min

binding ([1]; 0.28 ± 0.09 RFU against 0.51 for bromacil): weak
Compound: Cn1ccc(=O)[nH]c1=O

Compound: CCC(C)n1c(=O)[nH]c(C)c(Br)c1=O (stereo not shown)
binding ([1]; 100 nM DNA, 0.51 ± 0.16 RFU (blank -0.0045)): yes
Kd [2]: 9.6 ± 7.8 nM

binding ([1]; 0.22 ± 0.15 RFU against 0.51 for bromacil): weak
Compound: CCNc1nc(Cl)nc(NC(C)C)n1
